Publication PMC10392092, “Structural and molecular basis for urea recognition by Prochlorococcus” (The Journal of Biological Chemistry, 2023)

Columns and labels:
Experiment in all cases: isothermal titration calorimetry
Assay type in all cases: binding
UrtA [1] = molecular target: T1, UrtA (Prochlorococcus marinus, UniProt Q7V3V9, E146A)
T1 construct: 24-residue predicted signal peptide removed from 431-residue precursor (432 elsewhere in the source); C-terminal 6xHis tag, pET-22b, E. coli BL21(DE3); about 50 kDa; monomer; structure residues 38-431 described

UrtA [2] = molecular target: T2, UrtA (Prochlorococcus marinus, UniProt Q7V3V9, Y141A)
T2 construct: 24-residue predicted signal peptide removed from 431-residue precursor (432 elsewhere in the source); C-terminal 6xHis tag, pET-22b, E. coli BL21(DE3); about 50 kDa; monomer; structure residues 38-431 described

UrtA [3] = molecular target: T3, UrtA (Prochlorococcus marinus, UniProt Q7V3V9, F192A)
T3 construct: 24-residue predicted signal peptide removed from 431-residue precursor (432 elsewhere in the source); C-terminal 6xHis tag, pET-22b, E. coli BL21(DE3); about 50 kDa; monomer; structure residues 38-431 described

UrtA [4] = molecular target: T4, UrtA (Prochlorococcus marinus, UniProt Q7V3V9)
T4 construct: 24-residue predicted signal peptide removed from 431-residue precursor (432 elsewhere in the source); C-terminal 6xHis tag, pET-22b, E. coli BL21(DE3); about 50 kDa; monomer; structure residues 38-431 described
T4 sequence (Q7V3V9 25-431): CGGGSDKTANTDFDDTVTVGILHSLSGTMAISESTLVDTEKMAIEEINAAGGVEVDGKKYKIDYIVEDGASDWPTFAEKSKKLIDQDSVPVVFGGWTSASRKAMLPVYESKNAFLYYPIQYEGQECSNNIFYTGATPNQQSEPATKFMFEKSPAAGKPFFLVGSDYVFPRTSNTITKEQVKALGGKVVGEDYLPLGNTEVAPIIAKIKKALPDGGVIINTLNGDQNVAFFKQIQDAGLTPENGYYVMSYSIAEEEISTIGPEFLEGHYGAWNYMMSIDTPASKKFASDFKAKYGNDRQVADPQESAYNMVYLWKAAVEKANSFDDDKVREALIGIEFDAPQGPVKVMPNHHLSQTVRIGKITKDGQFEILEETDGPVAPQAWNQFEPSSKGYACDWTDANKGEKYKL

UrtA [5] = molecular target: T5, UrtA (Prochlorococcus marinus, UniProt Q7V3V9, S274A)
T5 construct: 24-residue predicted signal peptide removed from 431-residue precursor (432 elsewhere in the source); C-terminal 6xHis tag, pET-22b, E. coli BL21(DE3); about 50 kDa; monomer; structure residues 38-431 described

UrtA [6] = molecular target: T6, UrtA (Prochlorococcus marinus, UniProt Q7V3V9, W120A); conditions: pH 8.0, 20 mM Tris-HCl, 200 mM NaCl, 25 °C
T6 construct: 24-residue predicted signal peptide removed from 431-residue precursor (432 elsewhere in the source); C-terminal 6xHis tag, pET-22b, E. coli BL21(DE3); about 50 kDa; monomer; structure residues 38-431 described
T6 sequence (Q7V3V9 entry or part of it W120A): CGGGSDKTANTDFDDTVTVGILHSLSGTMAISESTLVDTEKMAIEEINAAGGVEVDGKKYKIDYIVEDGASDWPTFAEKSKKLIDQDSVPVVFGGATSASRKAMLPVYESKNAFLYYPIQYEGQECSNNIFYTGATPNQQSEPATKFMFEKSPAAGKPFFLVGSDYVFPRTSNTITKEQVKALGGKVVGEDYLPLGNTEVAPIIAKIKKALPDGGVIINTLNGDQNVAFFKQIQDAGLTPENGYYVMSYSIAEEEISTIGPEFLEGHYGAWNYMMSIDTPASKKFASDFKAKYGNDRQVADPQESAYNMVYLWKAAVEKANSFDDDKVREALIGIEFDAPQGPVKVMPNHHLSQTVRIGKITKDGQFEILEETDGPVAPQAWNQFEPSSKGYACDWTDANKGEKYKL

T2 sequence (Q7V3V9 entry or part of it Y141A): as the sequence (Q7V3V9 entry or part of it W120A) above, with A96W, Y117A counted along it
T3 sequence (Q7V3V9 entry or part of it F192A): as the sequence (Q7V3V9 entry or part of it W120A) above, with A96W, F168A counted along it
T1 sequence (Q7V3V9 entry or part of it E146A): as the sequence (Q7V3V9 entry or part of it W120A) above, with A96W, E122A counted along it
T5 sequence (Q7V3V9 entry or part of it S274A): as the sequence (Q7V3V9 entry or part of it W120A) above, with A96W, S250A counted along it

- Kd (UrtA [1]): 3.05 ± 0.609 µM
- Kd (UrtA [2]): 7.95 ± 1.22 µM
- Kd (UrtA [3]): 114 ± 26.7 nM
- Kd (UrtA [4]): 141 ± 11.2 nM
- Kd (UrtA [5]): 1280 ± 639 nM
SMILES: NC(N)=O [urea]
- Kd (UrtA [6]): the mutant W120A was unable to bind to urea
